Here are results for three compounds from patent publication US12427187B2, “Glucose-responsive insulin conjugates” (priority 2019, dated 2025).

In assay [1] the target is human IR(B) (Homo sapiens, UniProt P06213). As to the kind of experiment: Insulin receptor phosphorylation assay (MSD pIR). The following applies: CHO cells expressing human IR(B), IP = inflection point, read-out: IR Activation IP. In kind it is cell-based.
Protocol: CHO cells stably expressing human IR(B) were in grown in F12 cell media containing 10% FBS and antibiotics (G418, Penicillin/Strepavidin) for at least 8 hr, and then serum starved by switching to F12 media containing 0.5% BSA (insulin-free) in place of FBS for overnight growth. Cells were harvested and frozen in aliquots for use in the MSD pIR assay. Briefly, the frozen cells were plated in either 96-well (40,000 cells/well, Methods A) or 384-well (10,000 cells/well, Method B) clear tissue culture plates and allowed to recover. IOC molecules at the appropriate concentrations were added and the cells incubated for 8 min at 37° C. The media was aspirated and chilled MSD cell lysis buffer was added as per MSD kit instructions. The cells were lysed on ice for 40 min and the lysate then mixed for 10 min at rt. The lysate was transferred to the MSD kit pIR detection plates. The remainder of the assay was carried out following the MSD kit recommended protocol.
The in vitro biological activities towards insulin receptor (IR) were measured by either ligand competition assays or functional phosphorylation assays, as described above, labeled as following: Method A: IR phosphorylation assay based on 96-well; Method B: IR phosphorylation assay based on 384-well with automated liquid dispense; Method C: cell-based IR binding assay; Method D: SPA IR binding assay method E; Method E: MRC1 assay was performed in a 96-well plate; Method F: MRC1 assay was performed in a 384-well plate.
The target of assay [2] is T1, Human macrophage mannose receptor 1 (MRC1) (Homo sapiens, UniProt P22897).
T1 sequence (P22897 19-1456): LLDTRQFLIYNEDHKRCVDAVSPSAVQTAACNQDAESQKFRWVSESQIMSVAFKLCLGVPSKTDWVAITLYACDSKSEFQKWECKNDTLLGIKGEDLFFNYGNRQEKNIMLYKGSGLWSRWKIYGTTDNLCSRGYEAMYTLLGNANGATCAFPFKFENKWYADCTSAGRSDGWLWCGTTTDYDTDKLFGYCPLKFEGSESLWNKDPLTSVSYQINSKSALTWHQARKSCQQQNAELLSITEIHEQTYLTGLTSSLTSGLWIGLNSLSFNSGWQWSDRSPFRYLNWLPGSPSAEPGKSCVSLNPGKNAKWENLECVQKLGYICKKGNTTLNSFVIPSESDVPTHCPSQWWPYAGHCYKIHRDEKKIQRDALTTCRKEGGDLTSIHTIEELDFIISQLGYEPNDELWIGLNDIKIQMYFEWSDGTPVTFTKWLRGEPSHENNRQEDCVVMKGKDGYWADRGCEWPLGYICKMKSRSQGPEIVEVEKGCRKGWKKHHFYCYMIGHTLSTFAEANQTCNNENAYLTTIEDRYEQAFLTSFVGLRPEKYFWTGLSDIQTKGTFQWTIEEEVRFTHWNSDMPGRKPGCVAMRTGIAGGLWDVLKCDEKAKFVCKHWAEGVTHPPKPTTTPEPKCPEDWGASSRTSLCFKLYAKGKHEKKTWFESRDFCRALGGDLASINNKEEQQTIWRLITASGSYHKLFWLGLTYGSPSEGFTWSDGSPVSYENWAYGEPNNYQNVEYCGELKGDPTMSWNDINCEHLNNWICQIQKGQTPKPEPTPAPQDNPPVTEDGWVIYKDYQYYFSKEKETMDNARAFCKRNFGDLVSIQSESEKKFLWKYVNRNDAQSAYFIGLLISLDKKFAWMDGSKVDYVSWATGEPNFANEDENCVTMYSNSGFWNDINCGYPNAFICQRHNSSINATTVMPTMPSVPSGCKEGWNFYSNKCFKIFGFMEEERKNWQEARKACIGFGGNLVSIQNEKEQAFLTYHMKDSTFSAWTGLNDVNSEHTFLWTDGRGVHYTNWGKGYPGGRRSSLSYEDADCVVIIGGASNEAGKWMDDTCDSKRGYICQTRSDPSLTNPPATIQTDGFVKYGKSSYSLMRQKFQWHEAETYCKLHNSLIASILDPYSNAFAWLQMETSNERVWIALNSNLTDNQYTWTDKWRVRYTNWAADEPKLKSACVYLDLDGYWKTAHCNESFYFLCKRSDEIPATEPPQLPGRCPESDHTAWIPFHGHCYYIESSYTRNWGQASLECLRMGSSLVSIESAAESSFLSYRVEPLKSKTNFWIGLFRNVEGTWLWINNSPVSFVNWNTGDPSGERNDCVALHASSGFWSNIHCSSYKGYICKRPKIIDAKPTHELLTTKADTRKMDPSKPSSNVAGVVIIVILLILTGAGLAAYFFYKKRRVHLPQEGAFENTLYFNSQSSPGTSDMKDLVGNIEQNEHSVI
As to the kind of experiment: MRC1 competition binding assay with Eu-mannosylated-BSA. The following applies: IP = inflection point, read-out: MRC1 Binding IP.
Protocol: The competition binding assay for Human macrophage mannose receptor 1 (MRC1) utilized a ligand, mannosylated-BSA labeled with the DELFIA Eu-N1-ITC reagent, as reported in the literature. Assay was performed either in a 96-well plate with 100 μL well volume (Method E) or in a 384-well plate with 25 μL well volume (Method F). […] The antibody was incubated in the plate for 1 hr at rt with shaking. The plate was washed with wash buffer 3-5 times followed by addition of MRC1 (2 ng/μl final concentration) in PBS containing 1% stabilizer BSA. The plate was incubated at rt with gentle shaking for 1 hr. The plate was washed three times with wash buffer. The IOC molecules in 12.5 μL (or 50 μL depending on plate format) buffer at appropriate concentrations were added followed by 12.5 μL (or 50 μL) Eu-mannosylated-BSA (0.1 nm final concentration) in 50 mM Tris, pH 7.5 containing 100 mM NaCl, 5 mM CaCl2, 1 mM MgCl2 and 0.2% stabilizer BSA. The plate was incubated for 2 hrs at rt with shaking followed by washing three times with wash buffer.

The target in assay [3] is human insulin receptor type B (IR(B)) (Homo sapiens, UniProt P06213). As to the kind of experiment: IR binding assay, scintillation proximity assay on cell membranes (Method D). Conditions: Method D: SPA IR binding assay; IP = inflection point. A general note: Scintillation proximity formats need no separation of bound from free tracer.
Protocol: Method D: IR binding assay was run in a scintillation proximity assay (SPA) in 384-well format using cell membranes prepared from CHO cells overexpressing human IR(B) grown in F12 media containing 10% FBS and antibiotics (G418, Penicillin/Strepavidin). Cell membranes were prepared in 50 mM Tris buffer, pH 7.8 containing 5 mM MgCl2. The assay buffer contained 50 mM Tris buffer, pH 7.5, 150 mM NaCl, 1 mM CaCl2, 5mgCl2, 0.1% BSA and protease inhibitors (Complete-Mini-Roche). Cell membranes were added to WGA PVT PEI SPA beads (5 mg/mL final concentration) followed by addition of IOC molecules at appropriate concentrations.
The mark [4] stands for this setting: Method B: IR phosphorylation assay, 384-well with automated liquid dispense.

The structures appear in SMILES notation. Like-named read-outs stand apart in the source and are kept apart here.

Chain of human IR(B) (P06213 28-758 limits assumed): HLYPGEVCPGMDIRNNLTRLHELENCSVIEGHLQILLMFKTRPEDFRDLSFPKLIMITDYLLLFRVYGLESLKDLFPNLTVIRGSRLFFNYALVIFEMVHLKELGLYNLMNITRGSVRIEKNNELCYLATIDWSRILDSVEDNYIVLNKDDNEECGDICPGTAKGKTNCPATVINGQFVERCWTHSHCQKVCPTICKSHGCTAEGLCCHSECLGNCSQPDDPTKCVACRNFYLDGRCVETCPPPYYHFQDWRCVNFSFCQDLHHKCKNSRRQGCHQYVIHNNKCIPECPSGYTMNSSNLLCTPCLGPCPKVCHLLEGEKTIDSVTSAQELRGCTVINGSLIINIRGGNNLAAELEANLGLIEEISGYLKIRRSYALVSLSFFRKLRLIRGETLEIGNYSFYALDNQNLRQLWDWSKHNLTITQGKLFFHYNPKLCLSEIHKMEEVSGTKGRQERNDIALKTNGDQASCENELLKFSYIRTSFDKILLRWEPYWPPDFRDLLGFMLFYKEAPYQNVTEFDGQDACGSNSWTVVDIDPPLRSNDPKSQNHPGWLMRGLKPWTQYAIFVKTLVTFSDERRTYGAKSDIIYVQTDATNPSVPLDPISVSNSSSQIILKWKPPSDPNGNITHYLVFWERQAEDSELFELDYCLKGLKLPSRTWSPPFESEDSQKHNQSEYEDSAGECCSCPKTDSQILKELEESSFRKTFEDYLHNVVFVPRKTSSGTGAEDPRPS
Chain of human IR(B) (P06213 763-1382 partner limits assumed): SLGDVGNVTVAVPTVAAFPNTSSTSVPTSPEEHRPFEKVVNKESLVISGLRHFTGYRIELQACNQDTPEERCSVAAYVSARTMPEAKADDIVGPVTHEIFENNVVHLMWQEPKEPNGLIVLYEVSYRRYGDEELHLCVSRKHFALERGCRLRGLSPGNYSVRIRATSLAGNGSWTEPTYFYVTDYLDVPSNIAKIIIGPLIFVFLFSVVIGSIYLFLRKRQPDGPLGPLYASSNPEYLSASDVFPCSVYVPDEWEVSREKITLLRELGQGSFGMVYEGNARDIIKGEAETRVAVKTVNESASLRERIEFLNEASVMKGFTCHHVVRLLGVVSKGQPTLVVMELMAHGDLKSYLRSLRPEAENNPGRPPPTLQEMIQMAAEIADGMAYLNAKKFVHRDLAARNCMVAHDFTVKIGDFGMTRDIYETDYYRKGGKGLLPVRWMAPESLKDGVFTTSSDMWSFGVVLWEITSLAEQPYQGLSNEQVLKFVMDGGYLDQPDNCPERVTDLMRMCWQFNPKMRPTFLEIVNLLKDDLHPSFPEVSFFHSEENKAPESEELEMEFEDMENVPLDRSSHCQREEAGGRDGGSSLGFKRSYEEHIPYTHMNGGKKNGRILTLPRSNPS
Chain of human insulin receptor type B (IR(B)) (P06213 28-758 limits assumed): as the sequence (P06213 28-758 limits assumed) above
Chain of human insulin receptor type B (IR(B)) (P06213 763-1382 partner limits assumed): as the sequence (P06213 763-1382 partner limits assumed) above

Regarding `CC(=O)[C@H](CCCCN)NC(=O)CCCCCNC(=O)[C@H](CCCCNC(=O)CCCC(=O)N[C@@H](CCC(=O)N(CCOC1O[C@H](CO)[C@@H](O)[C@H](O)[C@@H]1O)CCOC1O[C@H](CO)[C@@H](O)[C@H](O)[C@@H]1O)C(=O)N(CCOC1O[C@H](CO)[C@@H](O)[C@H](O)[C@@H]1O)CCOC1O[C@H](CO)[C@@H](O)[C@H](O)[C@@H]1O)NC(=O)[C@H](CCCCNC(=O)CCCC(=O)N[C@@H](CCC(=O)N(CCOC1O[C@H](CO)[C@@H](O)[C@H](O)[C@@H]1O)CCOC1O[C@H](CO)[C@@H](O)[C@H](O)[C@@H]1O)C(=O)N(CCOC1O[C@H](CO)[C@@H](O)[C@H](O)[C@@H]1O)CCOC1O[C@H](CO)[C@@H](O)[C@H](O)[C@@H]1O)NC(=O)CCCC(=O)N[C@@H](CCC(=O)N(CCOC1O[C@H](CO)[C@@H](O)[C@H](O)[C@@H]1O)CCOC1O[C@H](CO)[C@@H](O)[C@H](O)[C@@H]1O)C(=O)N(CCOC1O[C@H](CO)[C@@H](O)[C@H](O)[C@@H]1O)CCOC1O[C@H](CO)[C@@H](O)[C@H](O)[C@@H]1O` (stereo partly shown) [IOC-62], the EC50 in assay [1] (setting [4]) was determined as 2.11 nM. Moreover, in assay [2] (Method E: 96-well plate), the IC50 was found to be 11.5 nM.
On to `CC(=O)[C@H](CCCCN)NC(=O)CCCCC(=O)N[C@@H](CCC(=O)NCCO[C@@H]1O[C@@H](C)[C@@H](O)[C@@H](O)[C@@H]1O)C(=O)N[C@@H](CCC(=O)NCCO[C@@H]1O[C@@H](C)[C@@H](O)[C@@H](O)[C@@H]1O)C(=O)N[C@@H](CCC(=O)NCCO[C@@H]1O[C@@H](C)[C@@H](O)[C@@H](O)[C@@H]1O)C(=O)NCCO[C@@H]1O[C@@H](C)[C@@H](O)[C@@H](O)[C@@H]1O` [IOC-19], for which, in assay [1] (Method A: IR phosphorylation assay, 96-well), the EC50 was found to be 0.81 nM. Also, in assay [2] (Method E: 96-well plate), the IC50 is 16 nM.
In the case of `CC(=O)[C@H](CCCCN)NC(=O)CCCCCNC(=O)[C@H](CCCCNC(=O)CCCCCNC(=O)CN(CC(=O)NCCO[C@H]1O[C@H](CO[C@H]2O[C@H](CO)[C@@H](O)[C@H](O)[C@@H]2O)[C@@H](O)[C@H](O[C@H]2O[C@H](CO)[C@@H](O)[C@H](O)[C@@H]2O)[C@@H]1O)CC(=O)NCCO[C@H]1O[C@H](CO[C@H]2O[C@H](CO)[C@@H](O)[C@H](O)[C@@H]2O)[C@@H](O)[C@H](O[C@H]2O[C@H](CO)[C@@H](O)[C@H](O)[C@@H]2O)[C@@H]1O)NC(=O)[C@H](CCCCNC(=O)CCCCCNC(=O)CN(CC(=O)NCCO[C@H]1O[C@H](CO[C@H]2O[C@H](CO)[C@@H](O)[C@H](O)[C@@H]2O)[C@@H](O)[C@H](O[C@H]2O[C@H](CO)[C@@H](O)[C@H](O)[C@@H]2O)[C@@H]1O)CC(=O)NCCO[C@H]1O[C@H](CO[C@H]2O[C@H](CO)[C@@H](O)[C@H](O)[C@@H]2O)[C@@H](O)[C@H](O[C@H]2O[C@H](CO)[C@@H](O)[C@H](O)[C@@H]2O)[C@@H]1O)NC(=O)CCCCCNC(=O)CN(CC(=O)NCCO[C@H]1O[C@H](CO[C@H]2O[C@H](CO)[C@@H](O)[C@H](O)[C@@H]2O)[C@@H](O)[C@H](O[C@H]2O[C@H](CO)[C@@H](O)[C@H](O)[C@@H]2O)[C@@H]1O)CC(=O)NCCO[C@H]1O[C@H](CO[C@H]2O[C@H](CO)[C@@H](O)[C@H](O)[C@@H]2O)[C@@H](O)[C@H](O[C@H]2O[C@H](CO)[C@@H](O)[C@H](O)[C@@H]2O)[C@@H]1O` [IOC-42], the EC50 in assay [1] (setting [4]) is 1.72 nM. Also, the IC50 was determined as 1.99 nM in assay [2] (Method F: 384-well plate) and 1.95 nM in assay [3].
